In patent US20240173285A1, “COMPOSITIONS COMPRISING EPA AND METHODS OF USING THE SAME FOR TREATING AND/OR PREVENTING ENDOTHELIAL DYSFUNCTION IN A SUBJECT” (Amarin Pharmaceuticals Ireland Limited, priority 2021, published 2024):

Assays:
HUVECs [1] = assay: NO release from HUVECs measured with tandem porphyrinic nanosensors; format: cell-based, human; conditions: for NO Release: then IL-6 12 ng/ml 24 h, calcium ionophore, mean ± SEM, N = 4-5
Procedure: Human pulmonary ECs (PECs) and umbilical vein ECs (HUVECs) were treated with vehicle or EPA (40/10 μM in PECs/HUVECs) and IL-6 (12 ng/ml) for 24 hours. Proteomic analysis was performed using liquid chromatography/mass spectroscopy. […] NO release was measured in HUVECs using tandem porphyrinic nanosensors following stimulation with calcium.
NO release from HUVECs was measured as previously described. Briefly, in parallel with the cellular preparations for proteomic analysis, HUVECs were stimulated with calcium ionophore and NO was measured using tandem porphyrinic nanosensors.

HUVECs [2] = assay: Peroxynitrite (ONOO-) release from HUVECs measured with porphyrinic nanosensor; format: cell-based, human; conditions: 10 μM 2 hours, then IL-6 12 ng/ml 24 h; for ONOO- Release: calcium ionophore, mean ± SEM, N = 4-5
Excerpt: FIG. 5 is a schematic illustration of the ONOO— assay. The nanosensor is used to quantitate endothelial NO and ONOO— release in real time and is made by depositing a sensing material on the tip of carbon fiber with a diameter of only 0.5 μm. The fiber is sealed with nonconductive epoxy and electrically connected to wires (gold, copper) with conductive silver epoxy. Conductive films of polymeric Ni(II) tetrakis (3-methoxy-4-hydroxyphenyl) porphyrin and Mn(III) paracyclophanylporphyrin were used for the NO and ONOO— sensors, respectively.
Release of ONOO— from HUVECs was measured as previously described. Briefly, in parallel with the cellular preparations for proteomic analysis, HUVECs were stimulated with calcium ionophore and ONOO— was measured using a porphyrinic nanosensor (FIG. 5).

[3] = system: umbilical vein ECs (HUVECs); assay: Proteomic analysis (LC/MS) of HUVECs treated with EPA and IL-6 for 24 hours; format: cell-based, human; conditions: EPA 10 μM + IL-6 12 ng/ml
Procedure: (§1) Human pulmonary ECs (PECs) and umbilical vein ECs (HUVECs) were treated with vehicle or EPA (40/10 μM in PECs/HUVECs) and IL-6 (12 ng/ml) for 24 hours. Proteomic analysis was performed using liquid chromatography/mass spectroscopy. […] Human pulmonary ECs (PECs) and umbilical vein ECs (HUVECs) were treated with vehicle or EPA (40/10 μM in PECs/HUVECs) and IL-6 (12 ng/ml) for 24 hours. Proteomic analysis was performed using liquid chromatography/mass spectroscopy. […] NO release was measured in HUVECs using tandem porphyrinic nanosensors following stimulation with calcium.

[4] = system: Human pulmonary ECs (PECs); assay: Proteomic analysis (LC/MS) of pulmonary ECs treated with EPA and IL-6 for 24 hours; format: cell-based; conditions: EPA 40 μM + IL-6 12 ng/ml
Procedure: as §1

Human PECs = assay: Fatty acid content of PECs by GC/MS; format: cell-based; conditions: PECs pretreated with EPA 40 μM, IL-6
Procedure: Human PECs were pretreated with vehicle or EPA (40 μM) for 2 hours, then challenged with IL-6 at 12 ng/ml for 24 hours. Proteomic analysis was performed using LC/MS to capture relative expression levels. Only significant changes in protein expression between treatment groups >2-fold were analyzed. Levels of intercellular adhesion molecule-1 (ICAM-1) were measured by immunochemistry. EPA, docosahexaenoic acid (DHA), docosapentaenoic acid (DPA), palmitic acid (PA), linoleic acid (LA) and arachidonic acid (AA) content was measured by GC/MS.

Human pulmonary ECs = assay: Proteomic analysis (LC/MS) of pulmonary ECs treated with EPA after IL-6 exposure; format: cell-based; conditions: IL-6 12 ng/ml 2 hours, then EPA 24 h
Procedure: Human pulmonary ECs were treated with vehicle or EPA for 24 h after exposure to IL-6 at 12 ng/ml for 2 hours. Proteomic analysis was performed using liquid chromatography/mass spectroscopy to capture relative expression levels. Only significant changes in protein expression between treatment groups >1-fold with a p-value less than 0.05 were analyzed.

[5] = system: heme oxygenase-1 (HMOX-1); assay: HMOX-1 expression relative to IL-6 in HUVECs (LC/MS proteomics); format: cell-based, human; conditions: 10 μM 2 hours, then IL-6 12 ng/ml 24 h
Procedure: (§2) HUVECs were treated with vehicle, EPA, or DHA (10 μM) for 2 hours, and then challenged with IL-6 (12 ng/ml) for 24 h hours. After incubation, cells were pelleted and frozen at −80° C. until proteomic analysis was performed. Cell pellets were lysed using methanol/chloroform extraction. Proteins were denatured, reduced, alkylated, and trypsin digested. Samples were then prepared for Tandem Mass Tag (TMT) 10plex labeling. A bicinchoninic acid (BCA) assay was performed on each sample to quantify the total protein in each sample, which is important to confirm equal amounts of each sample are added to the multiplex sample. Each peptide in a sample was given a unique, low molecular weight (typically 126-130 Da), and then the samples were combined. Relative protein expression levels among the various treatments were measured using LC/MS proteomic techniques. Following protein digest, peptides are separated over a reverse phase column and then identified based on their mass.
Each multiplexed sample was then fractionated to increase the overall protein coverage using high pH reversed phase fractionation and analyzed by LC/MS using a Dionex UltiMate 3000 RSLC in tandem with a Q-Exactive/Lumos Orbitrap Mass Spectrometer. The chromatography was performed using a 2-hour gradient on a Thermo Pepmap C18 column (100 Å pore size, 3.0 μm particle size, […]×150 mm) set at 50° C. […]

[6] = system: Platelet endothelial cell adhesion molecule 1 (PECAM-1); assay: PECAM-1 expression relative to IL-6 in HUVECs (LC/MS proteomics); format: cell-based, human; conditions: 10 μM 2 hours, then IL-6 12 ng/ml 24 h
Procedure: as §2, with “AA” for “DHA”, “mass. Each multiplexed sample was then fractionated to increase the overall protein coverage using high pH reversed phase fractionation and analyzed by LC/MS using a Dionex UltiMate 3000 RSLC in tandem with a Q-Exactive/Lumos Orbitrap Mass Spectrometer. The chromatography was performed using a 2-hour gradient on a Thermo Pepmap C18 column (100 Å pore size, 3.0 μm particle size, […]×150 mm) set at 50° C. […]” for “mass.”

[7] = Clinical study of human participants exposed to high-dose ethyl EPA; format: in vivo; conditions: high-dose exposure
Excerpt: Based on a clinical study of human participants, the inventors have discovered that exposure to a high-dose ethyl EPA (i.e., […]) is associated with fewer anemia AEs and higher hemoglobin and hematocrit. High-dose ethyl EPA exposure is also associated with higher levels of the heme derivative bilirubin, which is a potent antioxidant. […] Both biliverdin and bilirubin are potent antioxidants, but bilirubin is likely the stronger of the two. Bilirubin can be converted back into biliverdin rather than being eliminated, thus perpetuating both compounds' antioxidant effects.

CC/C=C\C/C=C\C/C=C\C/C=C\C/C=C\C/C=C\CCC(=O)O [DHA, docosahexaenoic acid, reference compound]
NO Release (HUVECs [1]; 10 μM 2 hours): 404 ± 15 nM

IL-6: cytokine interleukin-6 used to challenge endothelial cells (12 ng/ml) [reference compound]
NO Release (HUVECs [1]; 10 μM 2 hours): 371 ± 14 nM
ONOO- Release (HUVECs [2]): 217 ± 10 nM

CCCCC/C=C\C/C=C\C/C=C\C/C=C\CCCC(=O)O [AA, arachidonic acid, reference compound]
ONOO- Release (HUVECs [2]): 194 ± 9 nM

CC/C=C\C/C=C\C/C=C\C/C=C\C/C=C\CCCC(=O)O [EPA, eicosapentaenoic acid]
Platelet endothelial cell adhesion molecule (PECAM) downregulation [3]: 1.2 fold
heme-oxygenase-1 increase [3]: 1.6 fold
integrin alpha-V decrease [3]: 1.5 fold
superoxide dismutase increase [3]: 1.6 fold
Platelet endothelial cell adhesion molecule (PECAM) downregulation [4]: 1.2 fold
amyloid-beta precursor protein decrease [4]: 1.1 fold
heme-oxygenase-1 increase [4]: 1.9 fold
integrin alpha-V decrease [4]: 1.1 fold
thrombin receptor decrease [4]: 1.3 fold
increase of NO release compared to IL-6 alone (HUVECs [1]; 10 μM 2 hours, then IL-6 12 ng/ml 24 h (Example 5)): 13%
NO Release (HUVECs [1]; 10 μM 2 hours): 421 ± 12 nM
increase of NO release relative to IL-6 alone (HUVECs [1]; EPA 10 μM and IL-6 12 ng/ml 24 hours, calcium stimulation (Example 2)): 13%
reduction of PA (palmitic acid) levels (Human PECs): 34%
ACE level reduction (Human pulmonary ECs): 1.1 fold
ECE-1 level reduction (Human pulmonary ECs): 1.3 fold
Hsp90 increase compared to IL-6 (Human pulmonary ECs): 1.1 fold
caveolin-1 downregulation compared to IL-6 (Human pulmonary ECs): 1.3 fold
HMOX-1 Expression Relative to IL-6, Fold Change Increase [5]: 1.58 fold
upregulation of inducible HMOX-1 compared to IL-6 alone [5]: 160%
PECAM-1 Expression Relative to IL-6, Fold Change Increase [6]: 1.22 fold
decrease in PECAM-1 [6]: 120%
decrease of ONOO— release relative to IL-6 alone (HUVECs [2]): 17%
ONOO- Release (HUVECs [2]): 181 ± 10 nM

CC/C=C\C/C=C\C/C=C\C/C=C\C/C=C\CCCC(=O)OCC [ethyl EPA, eicosapentaenoic acid ethyl ester]
anemia AEs [7]: fewer
